Results on 2 molecules are retold here after EP4151631A1, “HETEROCYCLIC COMPOUNDS FOR THE CONTROL OF INVERTEBRATE PESTS” (BASF SE, priority 2021, dated 2023).

What is called mortality is the percentage killed.

Assay [1] deals with Spodoptera eridania. The assay is described as follows: Southern armyworm foliar spray test on lima bean plants. The conditions noted are these: 96 h, 2nd instar larvae on sprayed lima bean plants, 4 days after treatment, read-out: mortality in comparison with untreated controls. The class given is in vivo. The procedure:
The active compounds were formulated by a Tecan liquid handler in 100% cyclohexanone as a 10,000 ppm solution supplied in tubes. The 10,000 ppm solution was serially diluted in 100% cyclohexanone to make interim solutions. These served as stock solutions for which final dilutions were made by the Tecan in 50% acetone:50% water (v/v) into 10 or 20ml glass vials. A nonionic surfactant (Kinetic®) was included in the solution at a volume of 0.01% (v/v). The vials were then inserted into an automated electrostatic sprayer equipped with an atomizing nozzle for application to plants/insects. Lima bean plants (variety Sieva) were grown 2 plants to a pot and selected for treatment at the 1st true leaf stage. Test solutions were sprayed onto the foliage by an automated electrostatic plant sprayer equipped with an atomizing spray nozzle. The plants were dried in the sprayer fume hood and then removed from the sprayer. Each pot was placed into perforated plastic bags with a zip closure. Ten to 11 armyworm larvae were placed into the bag and the bags zipped closed. Test plants were maintained in a growth room at about 25°C and about 20-40% relative humidity for 4 days, avoiding direct exposure to fluorescent light (14:10 light:dark photoperiod) to prevent trapping of heat inside the bags. Mortality and reduced feeding were assessed 4 days after treatment, compared to untreated control plants.

For assay [2], the system named is Plutella xylostella. The assay is described as follows: Diamond back moth leaf-dip test on cabbage leaves. The format is in vivo. The conditions noted are these: 3rd instar larvae on dipped cabbage leaves, 72 hours after treatment, read-out: mortality in comparison with untreated controls. As for the experimental part: The active compound was dissolved at the desired concentration in a mixture of 1:1 (vol:vol) distilled water: acetone. Surfactant (Kinetic HV) was added at a rate of 0.01% (vol/vol). The test solution was prepared on the day of use.
Leaves of cabbage were dipped in test solution and air-dried. Treated leaves were placed in petri dishes lined with moist filter paper and inoculated with ten 3rd instar larvae. Mortality was recorded 72 hours after treatment. Feeding damages were also recorded using a scale of 0-100%.

In the case of `CC(NC(=O)c1cc(Br)cc(C(F)(F)F)c1)c1nccnc1-n1ncn(CC(F)(F)F)c1=O` (stereo not shown) [I-2, 3-bromo-N-[1-[3-[5-oxo-4-(2,2,2-trifluoroethyl)-1,2,4-triazol-1-yl]pyrazin-2-yl]ethyl]-5-(trifluoromethyl)benzamide], the mortality at 300 ppm in assay [1] and in assay [2] was ≥ 75% throughout.
On to `CC(NC(=O)c1cc(Br)cc(C(F)(F)F)c1)c1nccnc1-n1ncn(C)c1=O` (stereo not shown) [I-1, 3-bromo-N-[1-[3-(4-methyl-5-oxo-1,2,4-triazol-1-yl)pyrazin-2-yl]ethyl]-5-(trifluoromethyl)benzamide], for which the mortality at 300 ppm in assay [1] and in assay [2] was ≥ 75% each time.
